# In article PMC6123649, “Structural basis for specific inhibition of the highly sensitive ShHTL7 receptor” (EMBO Reports, 2018):
# Entries after “also recorded” stand apart in the source; their conditions may differ.
# Legend:
# Orobanche minor = tested on: Orobanche minor; parameters: method as in PMID 23915294; details: concentrations above 0.001%; cited from earlier work
# [1] = tested on: rice seeds cv. Nipponbare; experiment: Rice seed germination assay and growth of seedlings; format: in vivo; details: 15 μM of Triton
# Description: The rice seeds cv. Nipponbare were surface‐sterilized using 50 ml (2.5%) sodium hypochlorite with 0.4% of Tween‐20 for 15 min. After six subsequent washing steps with sterilized water, the rice seeds were kept in water at 30°C for overnight imbibition. About 2 ml of Triton X‐100 concentrations ranging from 1 to 100 μM and sterile MilliQ water (control) was added in 24‐well plates with six replications. One sterilized rice seed was put in each well and allowed to germinate for 48 h at 30°C. The germinated (radicle emergence) and non‐germinated seeds were recorded, and germination percentage was calculated. Then, same seeds were allowed to grow under light in growth cabinet for another 1 week. The length of […] seedlings was measured with roller and averaged.
# ShHTL7 = target: T1, ShHTL7 (Striga hermonthica, UniProt A0A0M3PNA2); experiment: Differential static light scattering (DSLS), aggregation temperature; format: binding
# T1 sequence (A0A0M3PNA2 1-271): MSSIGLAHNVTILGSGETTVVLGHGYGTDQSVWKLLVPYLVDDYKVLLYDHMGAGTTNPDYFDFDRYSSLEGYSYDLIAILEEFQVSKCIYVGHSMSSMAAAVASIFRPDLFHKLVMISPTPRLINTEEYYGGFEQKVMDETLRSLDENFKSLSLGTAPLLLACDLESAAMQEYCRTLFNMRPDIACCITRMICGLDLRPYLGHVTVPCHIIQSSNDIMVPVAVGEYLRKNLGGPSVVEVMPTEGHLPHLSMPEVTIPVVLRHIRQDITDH
# Description: The specific aggregation temperature, T agg, at which ShHTL7, ShHTL7L143Y, AtD14, and OsD14 aggregated in the presence or absence of Triton X‐100, GR24, and PAA was measured using DSLS on the Stargazer system (Harbinger Biotechnology and Engineering Corporation, Markham, Canada). Protein samples at a concentration of 10 μM were overlaid with mineral oil in a clear bottom 384‐well black plate (Corning) and heated from 20 to 95°C at 1°C/min; light scattering was detected by a CCD camera every 0.5°C in the presence or absence of varying concentrations of Triton X‐100, GR24, and PAA yielding the difference in aggregation temperature at a particular concentration from apoproteins (ΔT agg). Data were normalized, and ΔT agg plotted against the Triton X‐100, GR24, and PAA concentration. Resulting data were plotted to determine the change in T agg of all proteins when bound to Triton X‐100, GR24, and PAA using GraphPad (Prism 6).
substance,measurement,setting,value
Triton X-100,effect on seed germination,Orobanche minor,hindered seed germination
same,effect on rice seed germination,[1],did neither inhibit
same,effect on rice seedling growth,[1],nor affected seedling growth
same,effect on ShHTL7 aggregation temperature (T agg),"ShHTL7; 10 μM protein, varying compound concentrations",increases; also recorded: stabilized
same,effect of Triton pre‐incubation on GR24-induced T agg changes in ShHTL7,"ShHTL7; pre‐incubation with Triton, then GR24",efficiently blocked
